Experimental data from ChEMBL document CHEMBL1135699, “Designing non-peptide peptidomimetics in the 21st century: inhibitors targeting conformational ensembles” (J Med Chem, 2002).
Non-standard residues stand in square brackets, D forms with d. Residues, ends and D or L forms follow the SMILES beside them. *: point of attachment. Sta = CC(C)C[C@H](N)[C@@H](O)CC(=O)O; NHIsopentyl = CC(C)CCN*; X1 = CC(C)CCOC(=O)*

How the values were obtained:
Rhizopuspepsin = target: T1, Rhizopuspepsin (Rhizopus microsporus var. chinensis, UniProt P06026); assay: Inhibitory concentration against Rhizopus chinensis pepsin; format: functional
T1 sequence (P06026 whole entry): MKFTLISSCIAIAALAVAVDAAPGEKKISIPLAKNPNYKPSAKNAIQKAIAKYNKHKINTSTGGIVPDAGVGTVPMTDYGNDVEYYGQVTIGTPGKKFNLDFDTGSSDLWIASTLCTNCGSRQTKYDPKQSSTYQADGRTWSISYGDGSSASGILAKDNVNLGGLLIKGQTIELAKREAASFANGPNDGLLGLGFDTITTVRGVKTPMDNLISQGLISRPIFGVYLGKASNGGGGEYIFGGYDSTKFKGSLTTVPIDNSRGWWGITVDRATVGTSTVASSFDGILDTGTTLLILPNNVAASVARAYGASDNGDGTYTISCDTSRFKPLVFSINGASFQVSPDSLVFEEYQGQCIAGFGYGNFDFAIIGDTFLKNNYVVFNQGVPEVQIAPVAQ

Pepsin A [1] = target: Pepsin A (Homo sapiens, UniProt P0DJD9); assay: Inhibition of pepsin
Pepsin A [2] = target: Pepsin A (Sus scrofa, UniProt P00791); assay: Inhibitory concentration against porcine pepsin
Sequence of Pepsin A (Sus scrofa, UniProt P00791) (P00791 whole entry): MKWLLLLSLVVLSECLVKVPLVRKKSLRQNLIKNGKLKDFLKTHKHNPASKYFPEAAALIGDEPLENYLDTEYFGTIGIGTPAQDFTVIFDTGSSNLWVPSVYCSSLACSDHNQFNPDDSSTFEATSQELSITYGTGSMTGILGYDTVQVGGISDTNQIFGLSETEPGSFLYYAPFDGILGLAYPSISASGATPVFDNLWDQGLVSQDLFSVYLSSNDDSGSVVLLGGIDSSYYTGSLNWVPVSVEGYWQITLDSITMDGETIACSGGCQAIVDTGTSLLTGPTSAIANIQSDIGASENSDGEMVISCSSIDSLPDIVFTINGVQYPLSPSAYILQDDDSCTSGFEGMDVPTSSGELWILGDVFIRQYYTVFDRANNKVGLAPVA

Sequence of Pepsin A (Homo sapiens, UniProt P0DJD9) (P0DJD9 whole entry): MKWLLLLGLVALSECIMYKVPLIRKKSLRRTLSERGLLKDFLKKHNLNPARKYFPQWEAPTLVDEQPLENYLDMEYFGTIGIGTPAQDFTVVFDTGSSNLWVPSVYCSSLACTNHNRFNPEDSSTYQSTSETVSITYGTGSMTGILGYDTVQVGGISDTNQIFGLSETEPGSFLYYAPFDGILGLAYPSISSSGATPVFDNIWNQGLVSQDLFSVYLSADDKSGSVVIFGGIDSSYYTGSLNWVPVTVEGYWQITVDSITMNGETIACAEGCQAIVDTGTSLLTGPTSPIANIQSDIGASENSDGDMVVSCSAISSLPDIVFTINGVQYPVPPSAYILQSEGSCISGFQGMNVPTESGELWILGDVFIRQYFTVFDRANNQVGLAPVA

SMILES | Ki (Pepsin A [1]) | also measured
O=C(COc1ccc([C@H]2CCNC[C@@H]2OCc2ccc(Br)cc2)cc1)c1ccc2ccccc2c1 | – | IC50 (Rhizopuspepsin): 2000 nM
Brc1ccc(CO[C@H]2CNCC[C@@H]2c2ccccc2)cc1 | – | IC50 (Pepsin A [2]): 200 nM
CC(C)CCNC(=O)[C@H](C)NC(=O)C[C@H](O)[C@H](CC(C)C)NC(=O)[C@@H](NC(=O)[C@@H](NC(=O)OCCC(C)C)C(C)C)C(C)C (X1-VV[Sta]A-NHIsopentyl) | 0.1 nM | –

Second part, led by results:

Ki (Pepsin A [1]) | SMILES | also measured
1200 nM | CC(C)CCNC(=O)[C@H](C)NC(=O)C[C@](C)(O)[C@H](CC(C)C)NC(=O)[C@@H](NC(=O)[C@@H](NC(=O)OCCC(C)C)C(C)C)C(C)C | –
1.5 nM | CC(C)CCNC(=O)[C@H](C)NC(=O)C[C@@](C)(O)[C@H](CC(C)C)NC(=O)[C@@H](NC(=O)[C@@H](NC(=O)OCCC(C)C)C(C)C)C(C)C | –
